# Measurements taken from EP0369035A1, “AGENT FOR TREATING PANCREATITIS OR THE LIKE” (priority 1988, dated 1989).
# Columns and labels:
# human plasma kallikrein = molecular target: T1, human plasma kallikrein (Homo sapiens, UniProt P03952); assay: Anti-plasma kallikrein activity: inhibition of S-2302 degradation; format: biochemical; conditions: substrate S-2302, 37°C, pH 7.8; read-out: Plasma kallikrein S-2302 (I50)
# T1 construct: 50 µl of 0.12 units/ml human plasma kallikrein solution
# Protocol: 2) Assay of anti-plasma kallikrein activity Assay method of inhibition of S-2302 degradation
# (§1) The test substance was dissolved in a 0.05 M Tris-HC1 (pH 7.8) buffer to make a total volume of 400 µl, and 50 µl of a 2 mM S-2302 solution was added to the solution. After incubation at 37°C for 5 minutes in an incubator, an addition of 50 µl of 0.12 units/ml human plasma kallikrein solution, and incubation at 37°C for 5 minutes, the reaction was terminated by an addition of 50 µl of 50% acetic acid.
# human urokinase = human urokinase (Homo sapiens, UniProt P00749); assay: Anti-urokinase activity: inhibition of S-2444 degradation; format: biochemical; conditions: substrate S-2444, 37°C, pH 8.8; read-out: Urokinase S-2444 (I50)
# Protocol: 3) Assay of anti-urokinase activity Assay method of inhibition of S-2444 degradation
# as §1, with “8.8)” for “7.8)”, “1” for “2”, “S-2444” for “S-2302”, “mixture.” for “solution.”, “500” for “0.12”, “urokinase” for “plasma kallikrein”
# [1] = system: experimental pancreatitis; assay: Effect on experimental pancreatitis (sodium taurochorate + trypsin into the common bile duct), survival ratio; format: in vivo, SD-rats; parameters: Effect on experimental pancreatitis (100 mg/kg p.o.) After 24 hours / Effect on experimental pancreatitis (100 mg/kg p.o.) After 48 hours / Effect of existing control drug on experimental pancreatitis After 24 hours: unit not given here; conditions: survival ratio, 50 μg/kg/min x 80 min, rat
# Source text: [II] Effect on experimental pancreatitis
# SD-rats, body weight of about 200 g were, starved overnight, and 10 to 24 animals were used in one group. Sodium pentobarbital was intraperioneally administered to anesthetize each rat, and then a cannula was inserted to the femoral vein for the administration of the test substance. After abdominal surgery, the bile duct was blocked at a part thereof proximate to the liver, by a clip, a polyethylene tube was inserted to the common bile duct at a part thereof most proximate to the duodenum, and 0.1 ml of solution containing 2 mg sodium taurochorate and 1000 U trypsin dissolved in physiological saline was injected retrogrodely. After removal of the clip and tube, the common bile duct was ligated and the abdomen was closed. Note, the test substance was dissolved in an injective 5% glucose solution, and in the case of a continuous infusion, the solution was administered over 80 minutes starting from 10 minutes before the generation of pancreatitis. In the case of oral administration, the test substance was administered through an oral catheter 30 minutes before the generation of pancreatitis. After 24 hours and 48 hours from the generation of pancreatitis, the survival ratio of the animals was calculated and compared with a control group.
# in vivo = conditions: mouse, intravenous, ICR male mice, up-and-down method, read-out: Acute toxicity (LD50)
# Protocol: ICR male mice 5 to 10 weeks old were used. The test substance was dissolved in a 5% dimethylsulfoxide aqueous solution, and the solution was intravenously administered in an amount of 0.1 to 0.2 ml/10 g body weight. An LD50 value was calculated by up-and-down method.
# [2] = Measurement of half life in blood; format: in vivo; conditions: rat, iv; administered to the tail vein, SD-rats, plasma, HPLC
# Protocol: [VI] Measurement of half life in blood
# SD-rats 6 to 7 weeks old were used. The test substance was dissolved in an injective 5% glucose solution and administered to the tail vein. After the administration, blood samples were periodically obtained from the great vein and placed into heparinized test tubes. Plasma was separated by centrifugation and the test substance was extracted with ethyl acetate. After removal of the solvent, the residue was dissolved in 200 µl of methanol, and analyzed by high performance liquid chromatography. From the change of the concentration of the test substance in blood with time, a half life thereof in blood was calculated.
# bovine factor Xa = molecular target: T2, bovine factor Xa (Bos taurus, UniProt P00743); assay: Anti-FXa activity: inhibition of S-2222 degradation; format: biochemical; conditions: Table 3-2, existing control drugs; substrate printed as S-2238; read-out: FXa S-2238 (I50)
# T2 construct: 0.05 ml of 0.3 vial/ml bovine factor Xa
# T2 sequence (P00743 234-492 limits assumed): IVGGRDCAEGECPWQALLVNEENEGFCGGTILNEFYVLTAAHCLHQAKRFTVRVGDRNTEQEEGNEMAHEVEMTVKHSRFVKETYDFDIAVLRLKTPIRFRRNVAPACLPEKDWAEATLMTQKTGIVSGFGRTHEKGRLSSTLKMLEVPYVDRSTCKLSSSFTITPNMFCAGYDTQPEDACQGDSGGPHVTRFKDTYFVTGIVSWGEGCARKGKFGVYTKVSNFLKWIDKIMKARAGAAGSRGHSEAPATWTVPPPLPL
# T2 sequence (P00743 41-180 partner limits assumed): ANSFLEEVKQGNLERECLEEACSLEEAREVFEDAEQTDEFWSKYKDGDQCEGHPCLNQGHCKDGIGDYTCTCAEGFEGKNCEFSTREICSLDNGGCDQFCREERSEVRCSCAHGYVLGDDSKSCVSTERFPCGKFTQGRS
# T1 sequence (P03952 391-638 limits assumed): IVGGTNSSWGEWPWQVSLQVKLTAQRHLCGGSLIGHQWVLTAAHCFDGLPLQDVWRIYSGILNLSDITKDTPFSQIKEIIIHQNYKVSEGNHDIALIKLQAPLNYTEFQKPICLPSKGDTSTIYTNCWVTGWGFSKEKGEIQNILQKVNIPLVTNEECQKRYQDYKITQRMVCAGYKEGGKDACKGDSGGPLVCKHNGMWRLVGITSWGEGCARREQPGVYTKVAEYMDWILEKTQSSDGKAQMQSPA
# T1 sequence (P03952 20-390 partner limits assumed): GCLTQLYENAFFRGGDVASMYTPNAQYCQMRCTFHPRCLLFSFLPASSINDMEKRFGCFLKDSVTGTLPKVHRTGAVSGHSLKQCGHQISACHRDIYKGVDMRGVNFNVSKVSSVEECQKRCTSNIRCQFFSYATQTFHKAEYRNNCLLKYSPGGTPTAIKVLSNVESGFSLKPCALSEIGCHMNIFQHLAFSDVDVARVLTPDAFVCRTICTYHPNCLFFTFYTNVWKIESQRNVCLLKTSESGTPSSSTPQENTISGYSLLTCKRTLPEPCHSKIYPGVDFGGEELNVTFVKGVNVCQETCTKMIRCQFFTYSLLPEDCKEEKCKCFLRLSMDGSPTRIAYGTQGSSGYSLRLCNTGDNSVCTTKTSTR
smiles,measurement,setting,value
"N=C(N)c1ccc2cc(OC(=O)c3ccc(N=C(N)N)cc3)ccc2c1 [FUT-175, nafamostat mesilate, reference compound]",IC50,human plasma kallikrein,0.08 µM
same,IC50,human urokinase,0.01 µM
same,Effect of existing control drug on experimental pancreatitis After 24 hours,[1],33.3
same,LD50,in vivo,24 mg/kg
same,half-life,[2],2 to 3 min
same,IC50,bovine factor Xa,5.8 µM
